Results on 3 compounds are retold here after patent US20140128399A1, “METHODS AND COMPOSITIONS FOR TREATING URINARY TRACT INFECTIONS USING AGENTS THAT MIMIC OR ELEVATE CYCLIC AMP” (DUKE UNIVERSITY, priority 2007, published 2014).

Structures are written as SMILES.

In one experiment the test system is phosphodiesterases. Particulars: read-out: IC50, non-specific inhibitor of phosphodiesterases; cited from earlier work.
Experiment [1] has as its system human bladder epithelial cells. Briefly: Intracellular cAMP enzyme immunoassay. Type of experiment: cell-based. The method, then:
In this example, the effect of bacterial lipopolysccharide (LPS), a Toll-like Receptor 4 (TLR4) ligand, on intracellular levels of cAMP was assessed in human bladder epithelial cells (BECs). Methods are as described in Song et al. (2007) PLoS Pathog. 3(4):e60. BECs were seeded onto 6-well plates and grown overnight. The cells were treated with […] E. coli LPS for 6 h at 37° C., followed by washing four times with PBS to remove culture media, followed by an addition of […] of 0.1 M HCl. After a 10 min incubation, the cell lysate was centrifuged and the supernatant was used directly in the cAMP assay. Intracellular concentrations of cAMP were determined using a cAMP enzyme immunoassay kit (Sigma) according to the manufacturer's instructions.

The test system of experiment [2] is E. coli-infected human bladder epithelial cells (BECs). Briefly: Intracellular bacterial levels in BECs. It counts as cell-based. As to conditions: single agent, presented as % of control in figures. The method, then:
Intracellular bacterial levels in BECs were measured in untreated BECs and in BECs treated with forskolin, various PDE inhibitors, and a combination of forskolin with a PDE inhibitor. Several PDE inhibitors were used, including both broadly active PDE inhibitors that block PDEs in a non-specific manner as well as specific PDE inhibitors that block only certain PDEs.

Experiment [3] has as its system E. coli CI5. Briefly: In vivo bladder infection, 24-h-long infection, intravesicular forskolin. On the set-up: species or system mouse. As to conditions: Balb/c mice. Here is the method:
(§1) In this procedure, 8-week-old female BALB/c mice were anesthetized with sodium pentobarbital and then inoculated transurethrally with 50 μl of either E. coli CI5 or a bacterial suspension (approximately 1.0×10^8 CFU) suspended in PBS. After 2 h, the bladders were removed aseptically. Then the bladders were either bisected and fixed with 2% paraformaldehyde plus 2% gluteraldehyde in PBS (for transmission electron microscopy) or frozen for immunofluorescence microscopy. For the 2-h-long infections with E. coli and S. enterica SL1344, BALB/c mice were infected as above. After 2 h, the mice were intraperitoneally injected with 100 μl PBS (with or without 10 mg/kg forskolin) and intravesicularly instilled, for 1 h, with 100 μg/ml gentamicin in PBS (with or without 100 μM forskolin). For the 24-h-long infections, BALB/c mice were infected. After 24 h, the mice were intravesicularly instilled with 50 μl of PBS (with or without 100 μM forskolin) for 1 h. The 100 μM forskolin in PBS was replaced by 100 μg/ml gentamicin in PBS for 30 min. The bladders were then removed aseptically and homogenized them in 0.1% Triton X-100 in PBS. Homogenate dilutions were plated for colony counts.

The test system of another experiment is S. enterica SL1344. Briefly: In vivo bladder infection, 2-h-long infection, intracellular bacterial CFU. On the set-up: species or system mouse. As to conditions: BALB/c mice, forskolin 2 h after infection, i.p. 10 mg/kg and by catheter 100 μM. Here is the method: as §1
Experiment [4] relates to E. coli CI5. The experiment is described as above. On the set-up: species or system mouse. As to conditions: BALB/c mice, forskolin 2 h after infection, i.p. 10 mg/kg and by catheter 100 μM. The method, then:
as §1

Experiment [5] deals with E. coli CI5. The experiment is described as follows: In vivo bladder infection with 3-d-long forskolin regimen. On the set-up: species or system mouse. As to conditions: C3H/HeJ mice, forskolin 10 mg/kg i.p. at 6, 24 and 48 h; at 72 h; P≦0.03. Here is the method: In this procedure, 8-week-old female C3H/HeJ mice were infected with E. coli CI5 as above. At 6, 24 and 48 h after infection, the mice were intraperitoneally injected with 100 μl PBS, with or without 10 mg/kg forskolin. At 72 h after infection, bladders were aseptically removed and plated for colony counts.

Experiment [6] has as its system E. coli ORN103(pSH2) invasion into 5637 BECs. The experiment is described as follows: Gentamicin protection assay, UPEC invasion. It counts as cell-based, human. As to conditions: dilution 1:10. Here is the method: (§2) A gentamicin protection assay, including 5637 BECs on 96-well plates (40,000 cells/well), was used to determine the effect of forskolin on UPEC invasion. In this example, the UPEC was either J96 or E. coli ORN103(pSH2). 50 μM forskolin was administered as a pretreatment for 15 min before infection or administered at the same time as the bacteria.

Experiment [7] has as its system UPEC J96 invasion into 5637 BECs. Briefly: Gentamicin protection assay, UPEC invasion. It counts as cell-based, human. Particulars: dilution 1:10. Here is the method:
as §2

The test system of the next experiment is bacteria. The experiment is described as follows: Bacterial viability (data not shown).
A further experiment relates to 5637 BECs. Briefly: β-hexosaminidase release assay. Type of experiment: cell-based, human. As to conditions: uninfected 5637 BECs, 1 hr; forskolin 100 μM, dibutyryl-cAMP 1 mM, calcium ionophore 1 μM.
A further experiment relates to UPEC strain CI5. The experiment is described as follows: In vivo gentamicin protection assay, UPEC colonization of the bladder. On the set-up: species or system mouse. As to conditions: IP Fsk/Cather Fsk, 1 hr treatment. The method, then:
An in vivo gentamicin protection assay was used to determine the effect of forskolin on UPEC colonization of the bladder. In this example, UPEC strain CI5 was injected into the bladder via catheter to initiate a urinary tract infection. After 2 hours of infection, the mice were re-catheterized, the urine was removed, and the bladder was treated with 100 uM forskolin in PBS for 1 hour. After the forskolin treatment, 100 ug/ml gentamicin in PBS was injected into the bladder via catheter for 30 minutes. The bladders were then removed, washed in sterile PBS, and homogenized. The homogenates were plated on LB agar for overnight colony counts at various dilutions. Control mice were treated with PBS alone instead of forskolin plus PBS. The top half of Table 3 represents the raw colony counts while the bottom half of Table 3 represents the calculated bladder load of UPEC strain C15 based on the dilutions.

Another experiment deals with IL-6. Briefly: IL-6 ELISA of urine. It counts as in vivo, mouse. Here is the method:
In this assay, 8-week-old female C3H/HeJ mice were infected with E. coli CI5 as above. After 6 h, the mice were intraperitoneally injected with 100 μl of PBS, with or without 10 mg/kg forskolin. Urine was collected at 6 and 24 h after infection, using clean catch methods, and the samples were stored at −80° C. The concentration of IL-6 in the urine was determined using the mouse IL-6 ELISA kit (eBioscience, San Diego, Calif.) according to the manufacturer's protocol.

The test system of experiment [8] is fusiform vesicles of mouse bladder BECs. The experiment is described as follows: Immunofluorescence of bladder sections (Rab27b). Particulars: mouse bladders, antibodies to Rab27b, forskolin 100 μM 1 h. Type of experiment: in vivo. The method, then: Balb/c mice were either infected with E. coli CI5 as above, or they were treated with either 100 μM forskolin or PBS for 1 h through a catheter. Frozen sections of these bladders were cut using standard methods. Each section was fixed in 100% ethanol for 20 min at −20° C., and blocked in PBS with 1% BSA for 1 h at 4° C. Sections were incubated overnight at 25° C. with primary antibodies to either Rab27b (Santa Cruz Biotechnology, Inc., Santa Cruz, Calif.) or UPIII (Santa Cruz Biotechnology), and washed. Sections were incubated for 1 h at room temperature with secondary antibodies, and washed. To visualize the nuclei, the sections were incubated with Hoechst-33258 for 5 min at room temperature and then washed. All dilutions and washes were with PBS and 1% BSA. Coverslips were viewed as described previously.

[9] abbreviates: SH2, 50 μM forskolin at the same time as the bacteria.
The mark [10] stands for this setting: SH2, 50 μM forskolin pretreatment 15 min before infection.
The mark [11] stands for this setting: J96, 50 μM forskolin at the same time as the bacteria.
[12] abbreviates: J96, 50 μM forskolin pretreatment 15 min before infection.

On to `CC(C)Cn1c(=O)n(C)c(=O)c2[nH]cnc21` [IBMX, 3-Isobutyl-1-methylxanthine], for which the IC50 in the experiment on phosphodiesterases is 2 to 50 µM. The “intracellular cAMP levels compared to untreated controls” value in experiment [1] was “significantly increases”.
With `CCCCCCCCCCCCCC(=O)O[C@@H]1[C@@H](C)[C@@]2(O)[C@@H](C=C(CO)C[C@]3(O)C(=O)C(C)=C[C@@H]23)[C@@H]2C(C)(C)[C@]12OC(C)=O` [PMA, phorbol myristate acetate], the “bacterial loads / intracellular bacterial numbers in BECs” value in experiment [2] is “significantly reduced”.
Turning to `C=C[C@@]1(C)CC(=O)[C@]2(O)[C@@]3(C)[C@@H](O)CCC(C)(C)[C@@H]3[C@H](O)[C@H](OC(C)=O)[C@@]2(C)O1` [forskolin], in the experiment with E. coli CI5 [3] (intravesicular forskolin 100 μM 24 h after infection, P≦0.033), the “reduction in the number of E. coli CI5 within bladder compared to saline-treated controls” value is 79.4%. Further, the “mice harboring >10^5 bacteria in their bladders” value with E. coli CI5 [3] (intravesicular forskolin 24 h after infection, control 33%, P≦0.01) is 4.1%. Further, the “effect on intracellular S. enterica SL1344” value with S. enterica SL1344 is on record as “no effect”. In addition, the “intracellular E. coli CI5 eliminated” value with E. coli CI5 [4] is on record as “over 99%”. In addition, the “decrease of average bacterial load within the bladders compared to control mice” value with E. coli CI5 [5] is 56%. In experiment [6] (setting [9]), the “intracellular bacteria, Mean” value was 10575 colony counts; the “intracellular bacteria, replicate 1” value came out at 10980 colony counts; the “intracellular bacteria, replicate 2” value came to 8260 colony counts; the “intracellular bacteria, replicate 3” value came out at 14140 colony counts. Also, in experiment [6] (setting [9]), the “intracellular bacteria, replicate 4” value came to 8920 colony counts. Moreover, in [6] (setting [10]), the “intracellular bacteria, Mean” value was 9553 colony counts; the “intracellular bacteria, replicate 1” value is on record as 8860 colony counts; the “intracellular bacteria, replicate 2” value worked out at 9060 colony counts; the “intracellular bacteria, replicate 3” value stood at 10740 colony counts. In experiment [7] (setting [11]), the “intracellular bacteria, Mean” value was determined as 545 colony counts; the “intracellular bacteria, replicate 1” value amounted to 800 colony counts; the “intracellular bacteria, replicate 2” value was determined as 640 colony counts; the “intracellular bacteria, replicate 3” value was 460 colony counts. Further, in experiment [7] (setting [11]), the “intracellular bacteria, replicate 4” value is recorded as 280 colony counts. In addition, in [7] (setting [12]), the “intracellular bacteria, Mean” value amounted to 535 colony counts; the “intracellular bacteria, replicate 1” value was 720 colony counts; the “intracellular bacteria, replicate 2” value was 140 colony counts; the “intracellular bacteria, replicate 3” value is 200 colony counts. The “intracellular bacteria, replicate 4” value in experiment [7] (setting [12]) is reported as 1080 colony counts. Moreover, in the experiment with bacteria, the “effect on bacterial viability” value is reported as “no effect”. Further, the “release of β-hexosaminidase into extracellular media” value with 5637 BECs is recorded as “stimulated the BECs to release appreciable levels of β-hexosaminidase”. Besides, in the experiment with UPEC strain CI5, the “Percent Control (bladder load), Average” value came out at 0.41%; the “Percent Control (bladder load), mouse 1” value is 0.45%; the “Percent Control (bladder load), mouse 2” value turned out to be 0.22%; the “Percent Control (bladder load), mouse 3” value is on record as 0.56%. In addition, the “raw colony counts of bladder homogenate, Average” value in the experiment on UPEC strain CI5 stood at 83 colony counts. In the experiment on UPEC strain CI5 (based on the dilutions), the “calculated bladder load of UPEC strain CI5, Average” value was 1653 colony counts; the “calculated bladder load of UPEC strain CI5, mouse 1” value is 1820 colony counts; the “calculated bladder load of UPEC strain CI5, mouse 2” value is recorded as 900 colony counts; the “calculated bladder load of UPEC strain CI5, mouse 3” value was 2240 colony counts. For the same compound, in the experiment on UPEC strain CI5 (dilution 1:1), the “raw colony counts of bladder homogenate, mouse 1” value turned out to be 91 colony counts; the “raw colony counts of bladder homogenate, mouse 2” value came out at 45 colony counts; the “raw colony counts of bladder homogenate, mouse 3” value is 112 colony counts. In the experiment on IL-6 (E. coli CI5-infected C3H/HeJ mice, 18 h after forskolin 10 mg/kg i.p., P≦0.0003), the “decrease in urine IL-6” value turned out to be 99.6%. Besides, in the experiment on IL-6 (forskolin treatment alone, uninfected mice), the “IL-6 levels in uninfected mice” value is listed as “did not alter IL-6 levels”. In addition, the “translocation of fusiform vesicles to the apical plasma membrane” value in experiment [8] was “translocation of fusiform vesicles to the apical plasma membrane of mouse bladders was detected”.
